From paper PMC10424187, “Structure-Guided Design and Synthesis of a Pyridazinone Series of Trypanosoma cruzi Proteasome Inhibitors” (Journal of Medicinal Chemistry, 2023)
“And” between values parts separate entries of the source, which are not always exact repeats. Identical values can stand only once.

Assays:
[1] = Mouse microsomal intrinsic clearance; assay type: in vitro ADME; conditions: mouse liver microsomes, scaling 52.5 mg microsomal protein/g liver
Method: Mouse microsomal intrinsic clearance.
This assay was conducted as previously described:
J.; Reid, I. H.; Hill, A. P.;
were prepared by adding a volume (5 µL) of the 10 mM solution to a volume (195 µL) of […]

ChromLogD = assay type: physicochemical; conditions: pH 7.4; read-out: Chrom LogDpH7.4
Method: Chrom LogD was measured as previously described:
solubility and hydrophobicity. Drug Discov. Today 2010, 15, 648−655. […]

[2] = system: intracellular T. cruzi X10/7 A1 amastigotes
Human 20S proteasome = Human 20S proteasome (Homo sapiens, UniProt P28074+P49721); assay: human proteasome assay (chymotrypsin-like activity, Suc-LLVY-Rho-110-DPro); conditions: for Emax: read-out: Hs Prot Max Response (%), individual replicate
Method: T. cruzi and human proteasome assays
(§1) The T. cruzi proteasome was partially purified as described in the above reference and Human
(§2) 20S proteasome was purchased from Boston Biochem (now R&D Systems, catalogue number
(§3) a Tecan Fluent to titrate over 11 points in Labcyte Echo-compatible Greiner Bio-One 384 well
(§4) polypropylene microplates. Subsequently, 100 nl of test compound titrations were transferred
(§5) to black Greiner Bio-One low volume 384 well microplates using a Labcyte Echo acoustic
(§6) 50 mM HEPES pH 7.5, 150 mM sodium chloride, 5% Glycerol, 1 mM dithiothreitol, 1 mM
(§7) CHAPS in deionised, filtered water (all chemicals purchased from Sigma Aldrich). Human 20S
(§8) These enzyme solutions were prepared immediately prior to assay initiation and stored at 4 °C
(§9) To monitor the Chymotrypsin-like activity of the T. cruzi and Human 20S proteasome proteins
(§10) a self-quenched, Rhodamine 110-labelled peptide with the sequence Suc-LLVY-Rho-110-
(§11) DPro was used (prepared by Cambridge Research Biochemicals. Suc is succinyl, while DPro
(§12) refers to ᴅ-proline). The peptide was initially prepared from solid as a 10 mM solution in 100%
(§13) DMSO and stored at -20 °C. Prior to use in the assay, an aliquot was thawed at room
(§14) to twofold Km. For use with the Human 20S proteasome, the Suc-LLVY-Rho-110-DPro
(§15) peptide was diluted in assay buffer to a concentration equivalent to twofold Km, which for this
(§16) enzyme was 2 μM. The peptide solutions were protected from light and stored at 4 °C before
(§17) A Multidrop Micro (Thermo Fisher), using a low volume dispense cassette, was used to add
(§18) the assay solutions to the test compounds in the low volume 384-well microplates. Prior to
(§19) addition of proteasome solution, 5 μl of assay buffer was added to one column (containing 100
(§20) nl, 100% DMSO) to act as no enzyme control to mimic full inhibition. Subsequently, 5 μl of
(§21) proteasome solution (either T. cruzi or Human 20S) was added to all wells on the test
(§22) microplate apart from the column containing 5 μl assay buffer. The microplate was then spun
(§23) using a suitable bench top centrifuge for 1 minute at 1000 rpm, before incubation at room
(§24) Following the initial incubation, 5 μl of substrate solution was then added to all wells on the
(§25) test microplate using a Multidrop Micro equipped with a discrete low volume dispense cassette.
(§26) The test microplates were then spun for 10 seconds at 1000 rpm before being rapidly moved to
(§27) a multi-mode microplate reader, capable of monitoring fluorescence intensity. The microplate
(§28) reader used for these studies was a Tecan M1000 Pro, equipped with quad monochromators.
(§29) 530 ± 5 nm. A series of fluorescence intensity measurements were taken every 30 seconds for
(§30) Subsequently, the fluorescence intensity measurements (relative fluorescence units, RFU) were
(§31) fit to a simple linear regression model (y = A + Bx, where y refers to the fluorescence intensity
(§32) and x refers to the time in seconds) to determine the initial rate of reaction. The initial rate for
(§33) every compound concentration tested was then fit a 4-parameter logistic model: y = (A + (B -
(§34) A)) / (1 + (x / C)D), where y refers to the assay response, x refers to the inhibitor concentration,
(§35) A and B are the range values (minimum and maximum, respectively), C is the IC50 value and
(§36) D is the slope. Potency values were then reported as pIC50, which is the negative log of the
(§37) IC50 (on a molar scale). Data analysis was automated and carried out using the ActivityBase

T. cruzi proteasome = T. cruzi proteasome (Trypanosoma cruzi, UniProt V5BU39+V5C017); assay: T. cruzi proteasome assay (chymotrypsin-like activity, Suc-LLVY-Rho-110-DPro); conditions: for Tc Prot Hill Slope / Tc Prot Max Response (%): individual replicate; for Emax: read-out: Tc Prot Max Response (%), individual replicate; for T. cruzi Prot pIC50: mean of at least three independent replicates
T. cruzi proteasome, sequence (V5BU39 entry or part of it): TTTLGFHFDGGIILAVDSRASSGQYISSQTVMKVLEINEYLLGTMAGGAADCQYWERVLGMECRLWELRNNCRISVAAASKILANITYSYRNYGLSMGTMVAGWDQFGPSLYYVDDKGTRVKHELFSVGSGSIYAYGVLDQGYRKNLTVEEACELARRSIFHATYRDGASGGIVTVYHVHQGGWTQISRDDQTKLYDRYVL
T. cruzi proteasome, sequence (V5C017 entry or part of it): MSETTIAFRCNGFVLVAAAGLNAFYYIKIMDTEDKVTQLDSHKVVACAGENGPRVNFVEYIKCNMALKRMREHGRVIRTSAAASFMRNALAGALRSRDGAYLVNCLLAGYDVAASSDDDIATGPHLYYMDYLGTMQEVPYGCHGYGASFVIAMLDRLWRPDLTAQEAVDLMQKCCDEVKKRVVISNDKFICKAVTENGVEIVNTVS
Method: T. cruzi and human proteasome assays
as §1, §2, §3, §4, §5, §6, §7, §8, §9, §10, §11, §12, §13, §14, §15, §16, §17, §18, §19, §20, §21, §22, §23, §24, §25, §26, §27, §28, §29, §30, §31, §32, §33, §34, §35, §36, §37

[3] = mean of at least three independent replicates
[4] = T. cruzi Prot pIC50, mean of at least three independent replicates
[5] = Tc Prot pIC50, individual replicate

Structure (SMILES) | Mouse CLi [1] [mL/min/g] | chromatographic logD (ChromLogD) | EC50 [2] [nM] | EC50 (host VERO cells) | Hs Prot Max Response (%) (Human 20S proteasome; individual replicate) | Hs Prot pIC50 (Human 20S proteasome; individual replicate) | Hs Prot pIC50 (Human 20S proteasome; [3]) | Emax (Human 20S proteasome) [%] | IC50 (T. cruzi proteasome; [4]) [nM] | IC50 (T. cruzi proteasome; [5]) | Tc Prot Hill Slope (T. cruzi proteasome) | Tc Prot Max Response (%) (T. cruzi proteasome) | Emax (T. cruzi proteasome) [%] | Emax [2] | T. cruzi Prot pIC50 (T. cruzi proteasome) | Emax (host VERO cells) [%]
O=C(Nc1cccc(C(=O)NC2CC2)c1)c1ccc(=O)n(Cc2ccccc2)c1 [Compound 8, 1-Benzyl-N-(3-(cyclopropylcarbamoyl)phenyl)-6-oxo-1,6-dihydropyridine-3-carboxamide] | 0.8 | 3.3 | > 50100 | > 50100 nM and 39800 nM and 25100 nM | 12% and 6% | < 4 | <4 | 10 | 1580 | 2510 nM and 2000 nM and 794 nM | 1.0 and 0.9 | 85% and 77% | 80 | – | – | –
O=C(NC1CC1)c1cccc(NC(=O)c2ccc(=O)n(Cc3ccccc3)n2)c1 [Compound 5, 1-Benzyl-N-(3-(cyclopropylcarbamoyl)phenyl)-6-oxo-1,6-dihydropyridazine-3-carboxamide] | – | – | 7940 | – | 18% and 4% and 2% and 9% and 19% and 28% and 3% and 8% and 12% and 13% and 11% and 20% and 10% and 15% | < 4 | <4 | – | 631 | – | 0.5 and 0.8 and 0.9 and 1.1 and 0.95 and 1.0 and 0.74 and 0.7 and 0.6 | 105% and 88% and 77% and 79% and 81% and 80% and 73% and 74% and 75% and 78% | – | 73% and 75% and 70% and 81% and 55% and 80% and 83% | – | –
COc1ccc(Cn2nc(C(=O)Nc3ccc(F)c(C(=O)N[C@H](C)CO)c3)ccc2=O)cc1F [Compound 25, (R)-N-(4-Fluoro-3-((1-hydroxypropan-2-yl)carbamoyl)phenyl)-1-(3-fluoro-4-methoxybenzyl)-6-oxo-1,6-dihydropyridazine-3-carboxamide] | – | – | 398 | – | 0.497% and 2.25% and 10% and 4.33% and 5% and 2.24% and 9% | < 4 | <4 | – | 50.1 | 39.8 nM and 31.6 nM and 63.1 nM | 1.1 and 0.95 and 0.9 and 1.0 | 80% and 82% and 79% | 81 | 92% and 96% and 91% and 89% and 95% and 99% | – | –
COc1ccc(Cn2nc(C(=O)Nc3ccc(F)c(C(=O)N[C@H]4C[C@H](N5CCOCC5)C4)c3)ccc2=O)cc1F [Compound 23, N-(4-Fluoro-3-((trans-3-morpholinocyclobutyl)carbamoyl)phenyl)-1-(3-fluoro-4-methoxybenzyl)-6-oxo-1,6-dihydropyridazine-3-carboxamide] | – | – | – | – | 15% and 17% | < 4 | <4 | 13 | 7.94 | 5.01 nM | 1.2 and 1.1 | 86% | 88 | 96% and 93% and 98% and 95% and 97% and 94% | – | –
COc1ccc(Cn2nc(C(=O)Nc3ccc(F)c(C(=O)NCCN4CCOCC4)c3)ccc2=O)cc1F [Compound 22, 1-[(3-Fluoro-4-methoxy-phenyl)methyl]-N-[4-fluoro-3-(2-morpholinoethylcarbamoyl)phenyl]-6-oxo-pyridazine-3-carboxamide] | – | – | – | – | 7% and 14% and 2% | – | – | – | – | 15.8 nM | 1.0 and 0.9 | 80% and 81% | 72 | 99% and 93% and 95% and 97% and 98% and 91% and 96% | – | –
COc1ccc(Cn2nc(C(=O)Nc3ccc(F)c(C(=O)N[C@H]4C[C@H](OC)C4)c3)ccc2=O)cc1F [Compound 20, N-(4-Fluoro-3-((trans-3-methoxycyclobutyl)carbamoyl)phenyl)-1-(3-fluoro-4-methoxybenzyl)-6-oxo-1,6-dihydropyridazine-3-carboxamide] | – | – | – | – | 23% | < 4 | <4 | 20 | 6.31 | 6.31 nM | 0.9 | 63% and 86% | – | 100% and 94% and 92% and 97% | – | –
CN(C(=O)c1ccc(=O)n(Cc2ccccc2)n1)c1cccc(C(=O)NC2CC2)c1 [Compound 6, 1-Benzyl-N-(3-(cyclopropylcarbamoyl)phenyl)-N-methyl-6-oxo-1,6-dihydropyridazine-3-carboxamide] | 11 | 3.3 | > 50100 | – | 28% and 21% and 6% | < 4 | <4 | – | > 100000 | > 100000 nM | – | – | 30 | – | complete loss of activity | –
COc1cccc(Cn2nc(C(=O)Nc3ccc(F)c(C(=O)NC4CC4)c3)ccc2=O)c1 [Compound 13, N-(3-(Cyclopropylcarbamoyl)-4-fluorophenyl)-1-(3-methoxybenzyl)-6-oxo-1,6-dihydropyridazine-3-carboxamide] | 25 | 5.5 | > 50100 | – | 7% | < 4 | <4 | 9 | > 100000 | > 100000 nM | – | 2% and 10% | – | 23% | complete loss of potency | –
COc1ccc(Cn2nc(C(=O)Nc3ccc(F)c(C(=O)NC4CC4)c3)ccc2=O)cc1F [Compound 15, N-[3-(Cyclopropylcarbamoyl)-4-fluorophenyl]-1-[(3-fluoro-4-methoxy-phenyl)methyl]-6-oxo-pyridazine-3-carboxamide] | – | – | 158 | – | 17% and 16% and 19% and 12% and 6% and 8% and 5% and 1% | < 4 | <4 | – | – | – | – | – | – | 95% and 98% and 93% and 90% and 85% and 94% and 89% and 88% | – | –
CNC(=O)c1cc(NC(=O)c2ccc(=O)n(Cc3ccc(OC)c(F)c3)n2)ccc1F [Compound 27, 1-[(3-Fluoro-4-methoxy-phenyl)methyl]-N-[4-fluoro-3-(methylcarbamoyl)phenyl]-6-oxo-pyridazine-3-carboxamide] | – | – | 316 | – | 3.52% | < 4 | <4 | 6 | 6.31 | 3.98 nM and 10 nM and 7.94 nM | 1.0 and 0.9 | 60% and 80% and 81% | – | 99% and 88% and 89% and 96% and 90% and 97% and 94% | – | –
COc1ccc(Cn2nc(C(=O)Nc3ccc(F)c(C(=O)N[C@H]4C[C@@H](N5CCOCC5)C4)c3)ccc2=O)cc1F [Compound 24, N-(4-Fluoro-3-((cis-3-morpholinocyclobutyl)carbamoyl)phenyl)-1-(3-fluoro-4-methoxybenzyl)-6-oxo-1,6-dihydropyridazine-3-carboxamide] | – | – | – | – | 6.38% and 29% and 23% | < 4 | <4 | – | 7.94 | 6.31 nM | 1.1 | 85% and 87% | 82 | 93% and 95% and 98% and 96% | – | 16
COc1ccc(Cn2nc(C(=O)Nc3ccc(F)c(C(=O)N[C@H]4C[C@H](OC)C4)c3)ccc2=O)cc1 [Compound 19, N-(4-Fluoro-3-((trans-3-methoxycyclobutyl)carbamoyl)phenyl)-1-(4-methoxybenzyl)-6-oxo-1,6-dihydropyridazine-3-carboxamide] | – | – | – | – | 14% | < 4 | <4 | 16 | – | 31.6 nM | 1.0 and 1.1 and 0.9 | 84% and 95% | 78 | 86% and 80% and 94% and 101% and 90% and 88% | – | –
